Measurements taken from US5480905A, “Benzodioxane derivatives” (Chugai Seiyaku Kabushiki Kaisha, priority 1991, dated 1996).

Tested on: S.D. line male rats
Test: Antianxiety effect, water drinking under punishment (Vogel)
Assay type: in vivo, rat
Parameters: Antianxiety effect / Antianxiety effect, longevity: unit not given here
Settings: for change in vivo at 20 mg/kg: Rattus norvegicus, po, read-out: Antianxiety effect, Efficacy
Description: Antianxiety test was conducted in accordance with a method adapted from the method of Vogel et al. (Psychopharmacol., 21, 1-7, 1971). Stated more specifically, S.D. line male rats weighing 250-300 g were entirely kept from water for 24 h and then placed in a concrete experimental box. […] The bottom of the box was made of a stainless steel grid, from which electric shock (0.2 mA, 0.5 sec) could be applied to the limbs of rats. The test schedule was as follows: first, the rats were acclimatized to the experimental box and trained for drinking water; this was done for 3 min without electric shock. The quantity of water drunk by the rats was then measured (under non-punishment). Then, the rats were kept from drinking water for 24 h. Thereafter, the quantity of water drunk by each rat was measured (before administration of test compound) under such conditions that an electric shock was applied each time a rat drank one water drop (under punishment).Thirty minutes later, a test drug was administered perorally and after an additional 20 min, the quantity of water drunk by each rat was again measured under punishment (after administration of test compound). The quantity of water drunk by rats will decrease under punishment but it is known that the initial level can be restored by administering an antianxiety agent.
The antianxiety effect of a test compound was calculated by the following formula: [formula]
The procedure of Test Examples 2 and 3 were repeated except that test compounds were administered perorally in a dose of 10 mg/kg.
The procedures of Test Example 2 and 3 were repeated, except that test compounds were administered perorally in a dose of 20 mg/kg to check the longevity of their antianxiety and antidepressant effects for 0.5, 2 and 4 h.

[1] = peroral 20 mg/kg, 0.5 h after administration
[2] = peroral 20 mg/kg, 2.0 h after administration
[3] = peroral 20 mg/kg, 4.0 h after administration

Structure (SMILES)	change in vivo at 20 mg/kg (peroral 20 mg/kg) [%]	Antianxiety effect (peroral 10 mg/kg)	Antianxiety and antidepressant effects (peroral 10 mg/kg, Table 6)	Antianxiety effect (peroral 20 mg/kg)	Antianxiety effect, longevity [1]	Antianxiety effect, longevity [2]	Antianxiety effect, longevity [3]
Cc1cccc2c1OC(CNCCNC(=O)C13CC4CC(CC(C4)C1)C3)CO2 (centres unmarked) [Compound 1, N-{[2-(8-methyl-1,4-benzodioxan-2-ylmethyl)amino]ethyl}tricyclo[3,3,1,1^3, ^7]decane-1-carboxyamide]	85.4 ± 10.3	42.4 ± 2.1	superiority	better effects than MDL-73005	52.8	48.2	29.5
O=C(NCCN1CCN(c2ncccn2)CC1)C12CC3CC(CC(C3)C1)C2 [WY-50324, reference compound]	46.9 ± 6.3	–	–	–	57.8	24.8	11.2
